According to PubChem BioAssay AID1963449 (Molecular Pharmacology Branch, DTP, NCI, 2024):

System: 596521-263-R-J1-PDC complex spheroid growth
Test: Anticancer human tumor 596521-263-R-J1-PDC patient-derived soft tissue sarcoma cell line growth inhibition [Asc]
Details: for viability, T/C: stronger effect = lower value
Outline: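 Stromal components (HUVEC and hMSC) are co-assembled with the cancer cells into multicellular spheroids. Drugs are then added singly or paired, at concentrations falling by half-log increments from a clinically achievable maximum, capped at 10 microM without known Cmax.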
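Note: spheroids exposed to compounds for 7 days.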

## CNC(C)C(=O)NC1CN(S(=O)(=O)c2cccc(S(=O)(=O)N3CCC4CCC(C(=O)NC(c5ccccc5)c5ccccc5)N4C(=O)C(NC(=O)C(C)NC)C3)c2)CCC2CCC(C(=O)NC(c3ccccc3)c3ccccc3)N2C1=O (stereo unspecified) + Cc1c(S(C)(=O)=O)c(-c2cc(F)cc(N3CCN(c4ccc(NS(=O)(=O)c5ccc(NC(CCN6CCC(C(=O)OCCCP(=O)(O)O)CC6)CSc6ccccc6)c(S(=O)(=O)C(F)(F)F)c5)cc4)CC3)c2)c(-c2ccc(Cl)cc2)n1C(C)C
Curve of first compound, second compound 0.0316 µM
  IC50: > 1 µM
Curve of first compound, second compound 0.1 µM
  IC50: > 1 µM
Curve of first compound, second compound 0.316 µM
  IC50: > 1 µM
Curve of first compound, second compound 1 µM
  IC50: > 1 µM
Curve of first compound, second compound 3.16 µM
  IC50: 0.0238 µM
Curve of first compound, second compound 10 µM
  IC50: < 0.00316 µM
Second compound 0.0316 µM, first compound 0.00316 µM
  viability, T/C: 84.3%
Second compound 0.0316 µM, first compound 0.01 µM
  viability, T/C: 97.2%
Second compound 0.0316 µM, first compound 0.0316 µM
  viability, T/C: 75.4%
Second compound 0.0316 µM, first compound 0.1 µM
  viability, T/C: 84.7%
Second compound 0.0316 µM, first compound 0.316 µM
  viability, T/C: 89.2%
Second compound 0.0316 µM, first compound 1 µM
  viability, T/C: 75.2%
Second compound 0.1 µM, first compound 0.00316 µM
  viability, T/C: 86.1%
Second compound 0.1 µM, first compound 0.01 µM
  viability, T/C: 82.5%
Second compound 0.1 µM, first compound 0.0316 µM
  viability, T/C: 82.1%
Second compound 0.1 µM, first compound 0.1 µM
  viability, T/C: 83%
Second compound 0.1 µM, first compound 0.316 µM
  viability, T/C: 71.9%
Second compound 0.1 µM, first compound 1 µM
  viability, T/C: 69.1%
Second compound 0.316 µM, first compound 0.00316 µM
  viability, T/C: 91.8%
Second compound 0.316 µM, first compound 0.01 µM
  viability, T/C: 89.7%
Second compound 0.316 µM, first compound 0.0316 µM
  viability, T/C: 70.2%
Second compound 0.316 µM, first compound 0.1 µM
  viability, T/C: 70.1%
Second compound 0.316 µM, first compound 0.316 µM
  viability, T/C: 70.9%
Second compound 0.316 µM, first compound 1 µM
  viability, T/C: 56.1%
Second compound 1 µM, first compound 0.00316 µM
  viability, T/C: 74.3%
Second compound 1 µM, first compound 0.01 µM
  viability, T/C: 63.5%
Second compound 1 µM, first compound 0.0316 µM
  viability, T/C: 63.9%
Second compound 1 µM, first compound 0.1 µM
  viability, T/C: 64.3%
Second compound 1 µM, first compound 0.316 µM
  viability, T/C: 59.4%
Second compound 1 µM, first compound 1 µM
  viability, T/C: 49.5%
Second compound 3.16 µM, first compound 0.00316 µM
  viability, T/C: 54.1%
Second compound 3.16 µM, first compound 0.01 µM
  viability, T/C: 54%
Second compound 3.16 µM, first compound 0.0316 µM
  viability, T/C: 51.8%
Second compound 3.16 µM, first compound 0.1 µM
  viability, T/C: 42.4%
Second compound 3.16 µM, first compound 0.316 µM
  viability, T/C: 35.6%
Second compound 3.16 µM, first compound 1 µM
  viability, T/C: 32.3%
Second compound 10 µM, first compound 0.00316 µM
  viability, T/C: 44.1%
Second compound 10 µM, first compound 0.01 µM
  viability, T/C: 38.6%
Second compound 10 µM, first compound 0.0316 µM
  viability, T/C: 37.1%
Second compound 10 µM, first compound 0.1 µM
  viability, T/C: 34.2%
Second compound 10 µM, first compound 0.316 µM
  viability, T/C: 27%
Second compound 10 µM, first compound 1 µM
  viability, T/C: 20.8%

## O=C(c1cc(Cc2n[nH]c(=O)c3ccccc23)ccc1F)N1CCN(C(=O)C2CC2)CC1 + CCN1C(C(=O)NC23CCC(C(=O)O)(CC2)CC3)C(c2cccc(Cl)c2F)C2(C(=O)Nc3cc(Cl)ccc32)C12CCCCC2
Curve of first compound, second compound 0.00949 µM
  IC50: > 10 µM
Curve of first compound, second compound 0.03 µM
  IC50: > 10 µM
Curve of first compound, second compound 0.0949 µM
  IC50: > 10 µM
Curve of first compound, second compound 0.3 µM
  IC50: > 10 µM
Curve of first compound, second compound 0.949 µM
  IC50: > 10 µM
Curve of first compound, second compound 3 µM
  IC50: > 10 µM
Second compound 0.00949 µM, first compound 0.0316 µM
  viability, T/C: 101%
Second compound 0.00949 µM, first compound 0.1 µM
  viability, T/C: 87.5%
Second compound 0.00949 µM, first compound 0.316 µM
  viability, T/C: 95.5%
Second compound 0.00949 µM, first compound 1 µM
  viability, T/C: 95%
Second compound 0.00949 µM, first compound 3.16 µM
  viability, T/C: 88%
Second compound 0.00949 µM, first compound 10 µM
  viability, T/C: 67.5%
Second compound 0.03 µM, first compound 0.0316 µM
  viability, T/C: 101%
Second compound 0.03 µM, first compound 0.1 µM
  viability, T/C: 102%
Second compound 0.03 µM, first compound 0.316 µM
  viability, T/C: 97.6%
Second compound 0.03 µM, first compound 1 µM
  viability, T/C: 93.3%
Second compound 0.03 µM, first compound 3.16 µM
  viability, T/C: 88.4%
Second compound 0.03 µM, first compound 10 µM
  viability, T/C: 64.3%
Second compound 0.0949 µM, first compound 0.0316 µM
  viability, T/C: 101%
Second compound 0.0949 µM, first compound 0.1 µM
  viability, T/C: 93%
Second compound 0.0949 µM, first compound 0.316 µM
  viability, T/C: 108%
Second compound 0.0949 µM, first compound 1 µM
  viability, T/C: 104%
Second compound 0.0949 µM, first compound 3.16 µM
  viability, T/C: 90.6%
Second compound 0.0949 µM, first compound 10 µM
  viability, T/C: 58.6%
Second compound 0.3 µM, first compound 0.0316 µM
  viability, T/C: 95.8%
Second compound 0.3 µM, first compound 0.1 µM
  viability, T/C: 104%
Second compound 0.3 µM, first compound 0.316 µM
  viability, T/C: 107%
Second compound 0.3 µM, first compound 1 µM
  viability, T/C: 96.8%
Second compound 0.3 µM, first compound 3.16 µM
  viability, T/C: 96.9%
Second compound 0.3 µM, first compound 10 µM
  viability, T/C: 68.4%
Second compound 0.949 µM, first compound 0.0316 µM
  viability, T/C: 104%
Second compound 0.949 µM, first compound 0.1 µM
  viability, T/C: 89.5%
Second compound 0.949 µM, first compound 0.316 µM
  viability, T/C: 96.3%
Second compound 0.949 µM, first compound 1 µM
  viability, T/C: 91.2%
Second compound 0.949 µM, first compound 3.16 µM
  viability, T/C: 75.5%
Second compound 0.949 µM, first compound 10 µM
  viability, T/C: 66.3%
Second compound 3 µM, first compound 0.0316 µM
  viability, T/C: 75.2%
Second compound 3 µM, first compound 0.1 µM
  viability, T/C: 67.3%
Second compound 3 µM, first compound 0.316 µM
  viability, T/C: 74.2%
Second compound 3 µM, first compound 1 µM
  viability, T/C: 73.1%
Second compound 3 µM, first compound 3.16 µM
  viability, T/C: 72.5%
Second compound 3 µM, first compound 10 µM
  viability, T/C: 64.8%

## Cc1c(S(C)(=O)=O)c(-c2cc(F)cc(N3CCN(c4ccc(NS(=O)(=O)c5ccc(NC(CCN6CCC(C(=O)OCCCP(=O)(O)O)CC6)CSc6ccccc6)c(S(=O)(=O)C(F)(F)F)c5)cc4)CC3)c2)c(-c2ccc(Cl)cc2)n1C(C)C (stereo unspecified)
Compound 0.0316 µM
  viability, T/C: 101% [middle of 7 runs]
Compound 0.1 µM
  viability, T/C: 93.1% [middle of 7 runs]
Compound 0.316 µM
  viability, T/C: 91.5% [middle of 7 runs]
Compound 1 µM
  viability, T/C: 77.7% [middle of 7 runs]
Compound 3.16 µM
  viability, T/C: 63% [middle of 7 runs]
Compound 10 µM
  viability, T/C: 55.6% [middle of 7 runs]
Compound alone, run of 11/07/2022
  IC50: > 10 µM
